According to article PMC9328652, “A novel class of fast‐acting antimalarial agents: Substituted 15‐membered azalides” (British Journal of Pharmacology, 2020):

Tests used:
haem polymerization = experiment: Cell-free haem polymerization assay; assay type: biochemical; settings: cell‐free, N = 2
Protocol: Experiments were performed according to Tripathi, Khan, Walker, and […] ([2004]). Briefly, a solution of sodium acetate containing mono-oleoyl glycol and the corresponding inhibitor at different concentrations is placed in 1.5-ml reaction tubes. […] Multiple washing steps with Tris/SDS and bicarbonate, to remove monomeric haem and haem aggregates, allow quantification of de novo formed β-haematin.

[1] = tested on: Plasmodium falciparum FCR3 (CQ,AT); experiment: [3H]hypoxanthine incorporation antimalarial assay, strain FCR3; assay type: cell-based; settings: FCR3, 72 h, read-out: IC50 FCR3 (CQ,AT)
Protocol: (§1) The activity of the test compounds against P. falciparum in vitro was determined using the tritiated hypoxanthine incorporation assay of Desjardins et al. and additionally modified by Milhous and Chulay (Chulay, Haynes, & Diggs, [1983]; Milhous, Weatherly, Bowdre, & Desjardins, [1985]).
(§2) Compounds were dissolved in DMSO and subsequently diluted in the culture medium (RPMI 1640) supplemented with 10% v/v human plasma. Serial 1:2 drug dilutions were prepared in triplicate in microtitre plates. Culture medium supplemented with 10% v/v human plasma and type A Rhesus positive human erythrocytes infected with P. falciparum strains was added to yield a haematocrit of 3% and a parasitaemia of 0.25–0.55%. The plates were incubated at 37°C in a modular incubator flushed with a mixture of 5% oxygen, 3% carbon dioxide, and 92% nitrogen for 48 h, and then [^3H]hypoxanthine was added to give a final concentration of 12.5–16 μCi·ml^−1. After incubation for additional 24 h, particulate matter was harvested on fibreglass strips and hypoxanthine incorporation determined by scintillation spectrophotometry. […] Delayed death experiments were performed by this standard method but extending the incubation time with the drug up to 96 h.

[2] = Pharmacokinetic studies in CD-1 mice; settings: for B/P (ratio of AUC0−t in whole blood and plasma): after oral administration; for DNAUCPO (AUC0−t divided by the dose) / Cmax: blood; for DNAUCPO (AUC0−t divided by the dose): oral gavage 12.5 mg·kg^−1; for half-life / Vd / clearance / bioavailability / AUC(0-t) / Cmax: Swiss albino CD-1, mouse; for Vd / clearance: iv; for AUC(0-t): AUC0-t; for AUC(0-t) / Cmax: oral gavage 12.5 mg/kg; for Cmax: C max
Protocol: For pharmacokinetic (PK) studies in mice, animals were dosed either by intravenous (i.v.) or oral (p.o.) route. For i.v. administration, the dosing volume was 10 ml·kg^−1 for a total dose of 12.5 mg·kg^−1, and for p.o. administration, the dosing volume was 20 ml·kg^−1 for a total dose of 12.5 mg·kg^−1. Dosing solutions were prepared in 100% saline ([…]) both for i.v. and p.o. administration for all compounds with the exception of compound 4 for which dosing solutions were prepared in PBS with 5% Cremophor‐EL (Fluka). Following i.v. dosing, blood samples were collected at 5 and 15 min, 1, 3, 6, 8, 24, and 48 h post‐dose. Following oral dosing, blood samples were collected at 15 and 30 min, 1, 2, 4, 6, 8, 24, and 48 h post‐dose.
(§3) For studies performed in Swiss albino CD‐1 mice (Harlan Laboratories, Spain), in order to obtain simultaneous blood and plasma profiles and blood‐to‐plasma (B/P) ratio, PK was performed using terminal sampling of N = 3 animals per time point and data evaluated using composite analysis. For studies performed in P. falciparum infected and non‐infected NODscidβ2m^−/− mice (Charles River Laboratories, France), only whole blood was obtained by serial sampling of N = 3 animals using tail puncture.
(§4) For analysis of whole blood samples, 25 μl of fresh blood were mixed with 25 μl of saponin solution (0.1% in water) and immediately frozen on dry ice. Plasma was obtained by centrifugation of fresh blood at 2,500 g for 10 min. Both blood and plasma samples were stored frozen at −80°C until analysis.
(§5) Diluted blood and plasma samples were processed under standard liquid–liquid extraction procedures using acetonitrile containing internal standard (clarithromycin, 100 ng·ml^−1) and analysed by LC–MS/MS in positive ion mode with electrospray. Samples were assayed for parent compound using a Sciex API 4000 and Sciex API‐2000 Triple Quadrupole Mass Spectrometer (Sciex, Division of MDS Inc., Toronto, Canada), against a series of matrix matched calibration curve standards, using multiple reaction monitoring (MRM) at the specific transitions for each compound. Non‐compartmental analysis was performed using WinNonlin, version 4.1 (Pharsight, Mountain View, CA), and the main pharmacokinetic parameters were estimated.

[3] = Pharmacokinetics in P. falciparum infected and uninfected humanized mice; settings: for Cmax / Tmax: NODscidβ2m^−/−, mouse, whole blood, po, 12.5 mg/kg; for Cmax: C max, blood; for Cmax / Tmax / DNAUC(0–24): oral 12.5 mg·kg^−1, mean (SD); for Tmax: t max; for I/U (DNAUC infected versus uninfected): humanized mice, oral 12.5 mg·kg^−1
Protocol: For pharmacokinetic (PK) studies in mice, animals were dosed either by intravenous (i.v.) or oral (p.o.) route.
as §3, §4, §5

[4] = tested on: Plasmodium falciparum W2 (chloroquine/pyrimethamine resistant); experiment: [3H]hypoxanthine incorporation antimalarial assay, strain W2; assay type: cell-based; settings: W2, 72 h, read-out: Plasmodium falciparum IC50 W2
Protocol: as §1, §2

[5] = tested on: Plasmodium falciparum 3D7A (sensitive); experiment: [3H]hypoxanthine incorporation antimalarial assay, strain 3D7A; assay type: cell-based; settings: 72 h of incubation, N = 3
Protocol: as §1, §2

[6] = Pharmacokinetic studies in rats; assay type: in vivo, Sprague–Dawley rats; settings: Rat; for half-life / clearance / Vd / bioavailability: male, Sprague-Dawley, whole blood; for half-life: intravenous; for clearance / Vd: iv; for clearance: blood; for Vd: read-out: Vss; for bioavailability: po
Protocol: For the in vivo pharmacokinetic study, compound 1 was dosed i.v. at 5 mg·kg^−1 (5 ml·kg^−1 dosing volume) and p.o. at a dose of 25 mg·kg^−1 (10 ml·kg^−1) to male Sprague–Dawley rats (Charles River, France), weighing ~350 g. Compounds 2 and 3 were dosed i.v. at 2 mg·kg^−1 (5 ml·kg^−1 dosing volume) and p.o. at a dose of 10 mg·kg^−1 (10 ml·kg^−1). Rats were fasted for 6–12 h (overnight fasting) prior oral administration. For serial blood sampling, rats (n = 3) dosed with an i.v. bolus of compound had blood collected at the following time points after dosing: 5, 10, 20 40, 60, 120, 240, 480, 1,440, and 1,800 min. Rats (n = 3) dosed orally had blood collected at the following time points after dosing: 15, 30, 60, 120, 240, 360, 480, 1,440, and 1,800 min.
Dosing solutions were prepared in 100% saline both for i.v. and p.o. After both routes of administration, blood samples were collected from the tail vein up to 30 h, haemolysed, and frozen until analysis. […] Subsequently, samples were assayed as described for mouse PK.

[7] = whole blood, po, 12.5 mg/kg, F, CD‐1 mice, 12.5 mg·kg^−1 i.v. and p.o.
[8] = whole blood, intravenous, 12.5 mg/kg
[9] = whole blood, po, 12.5 mg/kg, fasted CD-1 mice
[10] = whole blood, po, 12.5 mg/kg, fed CD-1 mice

For CC[C@H]1OC(=O)[C@H](C)[C@@H](O[C@H]2C[C@@](C)(OC)[C@@H](O)[C@H](C)O2)[C@H](C)[C@@H](O[C@@H]2O[C@H](C)C[C@H](N(C)C)[C@H]2O)[C@](C)(O)C[C@@H](C)CN(C)[C@H](C)[C@@H](O)[C@]1(C)O [Azithromycin, reference compound], the IC50 (haem polymerization) was greater than 50 µM, the IC50 [1] was 2590 nM and the “B/P (ratio of AUC0−t in whole blood and plasma)” value ([2]; CD‐1 mice) was 2.4. The “DNAUCPO (AUC0−t divided by the dose)” value ([2]; CD‐1 mice) was 267 ng·kg·h/mL/mg, the half-life ([2]; in vivo, 12.5 mg/kg) was 606 min and the Vd ([2]; whole blood, 12.5 mg/kg) was 29.2 L/kg. For the same molecule, the clearance ([2]; whole blood, 12.5 mg/kg) was 40.2 mL/min/kg, the bioavailability [2, 7] was 61% and the Cmax ([3]; infected (I) humanized mice) was 344 ng/mL. It also gave a Cmax ([3]; uninfected (U) humanized mice) of 243 ng/mL, a Tmax ([3]; infected (I) humanized mice) of 1 h and a Tmax ([3]; uninfected (U) humanized mice) of 1.67 h. The “I/U (DNAUC infected versus uninfected)” value [3] was 1.1, the “DNAUC(0–24)” value ([3]; infected (I) humanized mice) was 161 (7) ng*h·ml^−1·mg^−1·kg^−1 and the “DNAUC(0–24)” value ([3]; uninfected (U) humanized mice) was 146 (37) ng*h·ml^−1·mg^−1·kg^−1.

With CC[C@H]1OC(=O)[C@H](C)[C@@H](O[C@H]2C[C@@](C)(OC)[C@@H](O)[C@H](C)O2)[C@H](C)[C@@H](O[C@@H]2O[C@H](C)C[C@H](N(C)C)[C@H]2O)[C@](C)(O)C[C@@H](C)CN(CCCNc2ccnc3cc(Cl)ccc23)[C@H](C)[C@@H](O)[C@]1(C)O [Compound 1] the IC50 (haem polymerization) was 2.5 to 4 µM, the IC50 [4] was 27 nM and the IC50 [5] was 20 nM. For the same molecule, the IC50 [1] was 22 nM, the DNAUCPO ([6]; p.o. 25 mg·kg^−1, mean (SD)) was 169 (21) ng*h·ml^−1·mg^−1·kg^−1 and the half-life ([6]; i.v. 5 mg·kg^−1 / p.o. 25 mg·kg^−1, mean (SD)) was 1400 min. For the same molecule, the clearance ([6]; i.v. 5 mg·kg^−1, mean (SD)) was 2.4 mL/min/kg, the Vd ([6]; i.v. 5 mg·kg^−1, mean (SD)) was 3.8 L/kg and the bioavailability ([6]; i.v. 5 mg·kg^−1, p.o. 25 mg·kg^−1, mean (SD)) was 2.3%. The “B/P (ratio of AUC0−t in whole blood and plasma)” value ([2]; CD‐1 mice) was 14.0, the “DNAUCPO (AUC0−t divided by the dose)” value ([2]; CD‐1 mice) was 253 ng·kg·h/mL/mg and the half-life [2, 8] was 1690 min. For the same molecule, the Vd ([2]; whole blood, 12.5 mg/kg) was 4.42 L/kg, the clearance ([2]; whole blood, 12.5 mg/kg) was 1.95 mL/min/kg and the bioavailability ([2]; whole blood, oral, 12.5 mg·kg^−1, F, fasted CD-1 mice, ratio of AUC0-t after PO and IV) was 11.3%. For the same molecule, the bioavailability ([2]; whole blood, oral, 12.5 mg·kg^−1, F, fed CD-1 mice, ratio of AUC0-t after PO and IV) was 3.75%, the AUC(0-t) [2, 9] was 9510 ng·h/mL and the AUC(0-t) [2, 10] was 3160 ng·h/mL. The Cmax [2, 9] was 582 ng/mL, the Cmax [2, 10] was 162 ng/mL and the bioavailability [2, 7] was 4%. The “increase in oral F in fasted versus fed mice” value ([2]; fed versus fasted mice) was “threefold increase”, the Cmax ([3]; infected (I) humanized mice) was 775 ng/mL and the Cmax ([3]; uninfected (U) humanized mice) was 173 ng/mL. For the same molecule, the Tmax ([3]; infected (I) humanized mice) was 1 h, the Tmax ([3]; uninfected (U) humanized mice) was 0.75 h and the “I/U (DNAUC infected versus uninfected)” value [3] was 2.1. The “DNAUC(0–24)” value ([3]; infected (I) humanized mice) was 362 (68) ng*h·ml^−1·mg^−1·kg^−1 and the “DNAUC(0–24)” value ([3]; uninfected (U) humanized mice) was 169 (33) ng*h·ml^−1·mg^−1·kg^−1.

Molecule CC[C@H]1OC(=O)[C@H](C)[C@@H](O)[C@H](C)[C@@H](O[C@@H]2O[C@H](C)C[C@H](N(C)C)[C@H]2OCCCNc2ccnc3ccccc23)[C@](C)(O)C[C@@H](C)CN[C@H](C)[C@@H](O)[C@]1(C)O [Compound 3] has an IC50 (haem polymerization) of 5 to 6.2 µM, an IC50 [4] of 27 nM and an IC50 [5] of 20 nM. The IC50 [1] was 22 nM, the DNAUCPO ([6]; oral gavage 10 mg·kg^−1, mean (SD)) was 36.2 (29) ng*h·ml^−1·mg^−1·kg^−1 and the half-life ([6]; i.v. 2 mg·kg^−1 / p.o. 10 mg·kg^−1, mean (SD)) was 1130 min. It also gave a clearance ([6]; i.v. 2 mg·kg^−1, mean (SD)) of 4 mL/min/kg, a Vd ([6]; i.v. 2 mg·kg^−1, mean (SD)) of 6.3 L/kg and a bioavailability ([6]; i.v. 2 mg·kg^−1, p.o. 10 mg·kg^−1, mean (SD)) of 1%. The “B/P (ratio of AUC0−t in whole blood and plasma)” value ([2]; CD‐1 mice) was 3.7, the “DNAUCPO (AUC0−t divided by the dose)” value ([2]; CD‐1 mice) was 362 ng·kg·h/mL/mg and the half-life [2, 8] was 936 min. It also gave a Vd ([2]; whole blood, 12.5 mg/kg) of 13.4 L/kg, a clearance ([2]; whole blood, 12.5 mg/kg) of 10.1 mL/min/kg and a bioavailability [2, 7] of 26%. The Cmax ([3]; infected (I) humanized mice) was 348 ng/mL, the Cmax ([3]; uninfected (U) humanized mice) was 83.8 ng/mL and the Tmax ([3]; infected (I) humanized mice) was 1.67 h. For the same molecule, the Tmax ([3]; uninfected (U) humanized mice) was 2.2 h, the “I/U (DNAUC infected versus uninfected)” value [3] was 3.9 and the “DNAUC(0–24)” value ([3]; infected (I) humanized mice) was 354 (129) ng*h·ml^−1·mg^−1·kg^−1. For the same molecule, the “DNAUC(0–24)” value ([3]; uninfected (U) humanized mice) was 91 (85) ng*h·ml^−1·mg^−1·kg^−1.
